Like-named read-outs stand apart in the source and are kept apart here.
Columns and labels:
A172 cells = assay: Cytotoxicity test, A172 cells (CCK-8); format: cell-based; details: for Tox50 A172 cell: 72 h, CCK-8, 3.125~50 μM; for effect on proliferation of cancer cells (A172 cells), in words: CCK-8
Experimental: (§1) Cytotoxicity was determined using Chang liver cells and A172 cells in DMEM with 10% FBS as previously described (Liu et al., [2018]). The final concentrations of the test compounds were 3.125~50 μM for A172 cells and 6.25~100 μM for Chang liver cells. After 72 h, the cell viabilities were determined using a CCK-8 kit. The concentration that induced 50% cell toxicity (Tox50) was then calculated.

Chang liver cells = assay: Cytotoxicity test, Chang liver cells (CCK-8); format: cell-based; details: for Tox50 Changliver cell: 72 h, CCK-8, 6.25~100 μM; for inhibition at 100 µM: Chang liver, read-out: inhibition rate, Chang liver cell
Experimental: as §1

[1] = test system: E. multilocularis protoscoleces; assay: In vitro drug screen with E. multilocularis protoscoleces (methylene blue exclusion); format: cell-based; details: Echinococcus multilocularis, read-out: LC50 E. multilocularis PSC
Experimental: In vitro treatment of PSCs was performed in 96-well microtiter plates (Costar, USA) containing 100 PSCs per 200 μl. A solution of the test compound (6.25~100 μM) was added to each well. Nitazoxanide and mebendazole (25 μM) were used as positive controls, while RPMI 1640 medium and RPMI 1640 with 0.25% DMSO were used as negative controls. […] All experiments were carried out in triplicate and repeated at least twice.

[2] = Pharmacokinetics analysis in plasma of mice; format: in vivo, BALB/c mice; details: for MRT last: read-out: MRT(0–t)
Experimental: To study the relationship between pharmacokinetic characteristics and treatment efficacy in vivo, compounds were administered by oral (50 mg/kg) and intramuscular (12.5 mg/kg) methods to healthy BALB/c mice ([…]). Subgroups of 3 mice each were bled at 0.25, 0.5, 1, 2, 4, 8, 16, 24, 32, and 48 h post-administration. Then, 300 μl samples of plasma were collected and centrifuged at 2,500 g for 15 min. The compounds in the plasma were extracted on Oasis HLB cartridges (Waters, Massachusetts, USA) with praziquantel as the internal standard. The HPLC-HRMS system used for separation and analysis consisted of an Accela 1250 pump, a PAL HTC autosampler, an Accela PDA detector and an Xcalibur data system (Thermo Fisher Scientific, Waltham, MA, USA). Compounds were separated on a 3-μm Waters Atlantis 2.1 mm × 100 mm column (Massachusetts, USA) with a mobile phase containing methanol and formic acid at a flow rate of 0.35 ml/min. The data were analyzed by the non-compartmental model present in DAS 2.0 (Drug Analysis System, Shanghai University of T.C.M, China). Detailed pharmacokinetic experimental methods, including a representative HPLC-MS chromatogram, a standard curve, and a plot used to confirm precision, are shown in the Supplementary Data.

E. multilocularis = assay: Compound efficacy in E. multilocularis-infected mice; details: for deaths of mice during the 28-days treatment: n = 10; for treatment efficacy versus control group, in words: 25 and 50 mg/kg/day oral; for treatment efficacy versus control group, in words / Mean cyst weight reduction (inhibition rate): 28 days; for Mean cyst weight reduction (inhibition rate): infected BALB/c mice
Experimental: E. multilocularis-infected animals [BALB/c mice (SLAC Laboratory Animal Center)] were maintained by serial i.p. transplantation passages through for 6 months, the details can be found in our published paper (Liu et al., [2019]). Eighty infected BALB/c mice were prepared for in vivo treatment experiments. Parasite materials were isolated from the peritoneal cavity of the infected animals and homogenized with Hanks' balanced salt solution (HBSS). Then, after passing the parasite homogenate through a 60-mesh sieve, the E. multilocularis PSCs were collected and rinsed 5~8 times. The viability of the PSCs was determined by the methylene blue exclusion method (Liu et al., [2018]), and PSCs with > 95% viability were used in the following experiments. The PSCs were cultured in RPMI 1,640 medium supplemented with 10% CS and antibiotics (100 U/ml penicillin G and 100 μg/ml streptomycin) at 37°C in 5% CO2.
The remaining mice were orally administered 1% tragacanth solution (1% TRA) as a control. All of the mice were euthanized 2 weeks after finishing the treatment, and all of the cysts were isolated and weighed. The efficacy of the treatments was assessed based on the mean cyst weight as previously described (Liu et al., [2015]).
The LC50 and Tox50 values were calculated by the probability unit method with SPSS version 17.0. The differences in mean cyst weight were analyzed by ANOVA in SPSS 17.0, and P < 0.05 was considered statistically significant.

[3] = Pharmacokinetics analysis in plasma of mice; format: in vivo, BALB/c mice; details: drug and plasma samples left overnight
[4] = 72 h incubation, 6.25~100 μM, methylene blue exclusion
[5] = BALB/c, im, mouse plasma, intramuscular 12.5 mg/kg
[6] = BALB/c, mouse, plasma, im, 12.5 mg/kg, intramuscular 12.5 mg/kg, read-out: Cmax
[7] = BALB/c, mouse, plasma, po, 50 mg/kg, oral 50 mg/kg, read-out: Cmax
[8] = BALB/c, mouse plasma, oral 50 mg/kg
[9] = mouse plasma, intramuscular 12.5 mg/kg

CCN(CC(=O)Nc1cc(Cl)cc(Cl)c1)Cc1nc(=O)c2ccc(Cl)cc2[nH]1 [Compound S28]
Tox50 A172 cell (A172 cells): 20.99 ± 4.12 µM | effect on proliferation of cancer cells (A172 cells), in words (A172 cells): inhibited the proliferation | Tox50 Changliver cell (Chang liver cells): 35.41 ± 0.62 µM | LC50 [1, 4]: 19.9 ± 0.31 µM

O=C(CC1CCC(c2c[nH]c3ccccc23)CC1)Nc1cccc(Cl)c1 (stereo not drawn) [Compound S5]
Tox50 A172 cell (A172 cells): 11.98 ± 0.91 µM | effect on proliferation of cancer cells (A172 cells), in words (A172 cells): inhibited the proliferation | Tox50 Changliver cell (Chang liver cells): 42.44 ± 0.34 µM | LC50 [1, 4]: 18.6 ± 1 µM

Cc1ccc(C)c(NC(=O)CC2CCC(c3c[nH]c4ccccc34)CC2)c1 (stereo not drawn) [Compound S11]
Tox50 A172 cell (A172 cells): 22.72 ± 1.37 µM | effect on proliferation of cancer cells (A172 cells), in words (A172 cells): inhibited the proliferation | inhibition at 100 µM (Chang liver cells): 42.1% | LC50 [1, 4]: 18.7 ± 0.87 µM

OC(CN1CCCCC1)Cn1c2ccc(Cl)cc2c2cc(Cl)ccc21 (stereo not drawn) [HT3]
Tmax [2, 5]: 1 h | MRT last [2, 5]: 18.1 ± 2.38 h | Cmax [2, 6]: 39.6 ± 11.2 ng/mL | Cmax [2, 7]: 122 ± 42.6 ng/mL | Tmax [2, 8]: 0.33 ± 0.14 h | MRT last [2, 8]: 4.16 ± 0.85 h | deaths of mice during the 28-days treatment (E. multilocularis; 25 mg/kg/day oral): 2 mice | deaths of mice during the 28-days treatment (E. multilocularis; 50 mg/kg/day oral): 3 mice | treatment efficacy versus control group, in words (E. multilocularis): ineffective

CN(C)[C@@H](CNC(=O)C[C@H]1Sc2ccc(Cl)cc2NC1=O)Cc1ccccc1 [Compound S39]
Tox50 Changliver cell (Chang liver cells): 51.46 ± 3.34 µM | LC50 [1, 4]: 17.7 ± 0.74 µM

COc1cccc(NC(=O)CN(C)CC(=O)Nc2ccc(F)c(Cl)c2)c1 [Compound S1]
Tox50 Changliver cell (Chang liver cells): 43.98 ± 1.38 µM | LC50 [1, 4]: 20.4 ± 0.51 µM

CN(CC(=O)Nc1cccc(F)c1)CC(=O)Nc1cccc2ccccc12 [Compound S16]
Tox50 A172 cell (A172 cells): 21.00 ± 6.24 µM | effect on proliferation of cancer cells (A172 cells), in words (A172 cells): inhibited the proliferation | inhibition at 100 µM (Chang liver cells): 34.6% | LC50 [1, 4]: 17.4 ± 0.2 µM

OC(COc1ccc(F)cc1)CN1CCN(C(c2ccccc2)c2ccccc2)CC1 (stereo not drawn) [BTB4]
Tmax [2, 5]: 4.67 ± 3.06 h | MRT last [2, 5]: 16 ± 1.13 h | Cmax [2, 6]: 86.4 ± 4.02 ng/mL | Cmax [2, 7]: 225 ± 55.4 ng/mL | Tmax [2, 8]: 2 h | MRT last [2, 8]: 8.08 ± 1.55 h | AUC(0–t) [2, 9]: 1589.90 ± 165.13 ng·h/mL | AUC(0–t) ([2]; mouse plasma, oral 50 mg/kg): 1692.29 ± 341.00 ng·h/mL | deaths of mice during the 28-days treatment (E. multilocularis; 25 mg/kg/day oral): 2 mice | deaths of mice during the 28-days treatment (E. multilocularis; 50 mg/kg/day oral): 4 mice | treatment efficacy versus control group, in words (E. multilocularis): ineffective

C[C@H](C(=O)N(C)Cc1ccccc1)N(C)CC(=O)Nc1cccc2ccccc12 [Compound S19]
Tox50 A172 cell (A172 cells): 22.54 ± 1.79 µM | effect on proliferation of cancer cells (A172 cells), in words (A172 cells): inhibited the proliferation | inhibition at 100 µM (Chang liver cells): 36.5% | LC50 [1, 4]: 18.8 ± 1.7 µM

O=C(CC1CCC(c2c[nH]c3ccccc23)CC1)Nc1cc(Cl)ccc1Cl (stereo not drawn) [Compound S6]
stability in plasma samples: detectable concentration [3]: greatly reduced | Tox50 A172 cell (A172 cells): 11.00 ± 5.00 µM | effect on proliferation of cancer cells (A172 cells), in words (A172 cells): inhibited the proliferation | inhibition at 100 µM (Chang liver cells): 24.6% | Cmax [2, 7]: 1 ng/mL | Tmax [2, 8]: 4.33 ± 3.51 h | MRT last [2, 8]: 4.34 ± 2.59 h | plasma concentration, in words [2, 9]: below the detection limit | AUC(0–t) ([2]; mouse plasma, oral 50 mg/kg): 5.10 ± 4.64 ng·h/mL | Cmax ([2]; mouse plasma, oral 50 mg/kg, 50 mg/kg): 1.55 ± 1.01 ng/mL | LC50 ([1]; 72 h): 17 ± 0.93 µM | Mean cyst weight reduction (inhibition rate) (E. multilocularis; 25 mg/kg/day oral gavage): 9.53% | Mean cyst weight reduction (inhibition rate) (E. multilocularis; 50 mg/kg/day oral gavage): 14.43% | treatment efficacy versus control group, in words (E. multilocularis): no significant difference

Cc1ccnc(NC(=O)C2CCN(CCC(=O)Nc3ccc4c(c3)CCC4)CC2)c1 [Compound S31]
LC50 ([1]; 72 h): 19.2 ± 0.8 µM

COC(=O)Nc1nc2ccc(C(=O)c3ccccc3)cc2[nH]1 [MBZ, mebendazole, reference compound]
Mean cyst weight reduction (inhibition rate) (E. multilocularis; 25 mg/kg/day oral gavage): 39.66% | deaths of mice during the 28-days treatment (E. multilocularis; 25 mg/kg/day oral): 1 mice

COc1ccc([C@H]2CCCN2CC(=O)NCc2cccc(Cl)c2)c(OC)c1 [Compound S59]
Tox50 Changliver cell (Chang liver cells): 66.53 ± 2.99 µM | LC50 [1, 4]: 19.6 ± 0.56 µM

From publication PMC7098963, “Pharmacophore-Based Virtual Screening Toward the Discovery of Novel Anti-echinococcal Compounds” (Frontiers in Cellular and Infection Microbiology, 2020)
